Measured values reported in ChEMBL document CHEMBL1129399, “N-aryl-3,3,3-trifluoro-2-hydroxy-2-methylpropanamides: KATP potassium channel openers. Modifications on the western region” (J Med Chem, 1996).

Columns and labels:
Rattus norvegicus [1] = assay: in vivo activity was evaluated by measuring heart rate(HR) after 5 hour.; format: functional
Rattus norvegicus [2] = assay: in vivo activity was evaluated by measuring interval between bladder contractions (IC) after 1 hour.; format: functional
Rattus norvegicus [3] = assay: in vivo activity was evaluated by measuring interval between bladder contractions (IC) after 5 hour.; format: functional
Rattus norvegicus [4] = assay: in vivo activity was evaluated by measuring heart rate(HR) after 3 hour.; format: functional
Rattus norvegicus [5] = assay: in vivo activity was evaluated by measuring mean arterial pressure(MAP) after 5 hour.; format: functional, Artery
Rattus norvegicus [6] = assay: in vivo activity was evaluated by measuring mean arterial pressure(MAP) after 1 hour.; format: functional, Artery
Rattus norvegicus [7] = assay: in vivo activity was evaluated by measuring heart rate(HR) after 1 hour.; format: functional
Rattus norvegicus [8] = assay: in vivo activity was evaluated by measuring mean arterial pressure(MAP) after 3 hour.; format: functional, Artery
Rattus norvegicus [9] = assay: in vivo activity was evaluated by measuring interval between bladder contractions (IC) after 3 hour.; format: functional
Rattus norvegicus [10] = assay: in vivo activity was evaluated by measuring interval between bladder contractions (IC) after 1 hour.
Rattus norvegicus [11] = assay: In vivo activity was evaluated by measuring mean arterial pressure(MAP) after 1 hour; format: functional, Artery
Rattus norvegicus [12] = assay: In vivo activity was evaluated by measuring heart rate(HR) after 3 hours; format: functional
Rattus norvegicus [13] = assay: In vivo activity was evaluated by measuring heart rate(HR) after 1 hour; format: functional
Rattus norvegicus [14] = assay: In vivo activity was evaluated by measuring interval between bladder contractions (IC) after 3 hours; format: functional
Rattus norvegicus [15] = assay: In vivo activity was evaluated by measuring mean arterial pressure(MAP) after 3 hours; format: functional, Artery
Rattus norvegicus [16] = assay: In vivo activity was evaluated by measuring heart rate(HR) after 5 hours; format: functional
Rattus norvegicus [17] = assay: In vivo activity was evaluated by measuring mean arterial pressure(MAP) after 5 hours; format: functional, Artery
Rattus norvegicus [18] = assay: In vivo activity was evaluated by measuring interval between bladder contractions (IC) after 1 hour; format: functional
Rattus norvegicus [19] = assay: In vivo activity was evaluated by measuring interval between bladder contractions (IC) after 5 hours; format: functional
Rattus norvegicus [20] = assay: In vivo activity was evaluated by measuring interval between bladder contractions (IC) after 3 hour.; format: functional
Rattus norvegicus [21] = assay: In vivo activity was evaluated by measuring heart rate(HR) after 3 hour.; format: functional
Rattus norvegicus [22] = assay: In vivo activity was evaluated by measuring heart rate(HR) after 5 hour.; format: functional
Rattus norvegicus [23] = assay: In vivo activity was evaluated by measuring interval between bladder contractions (IC) after 5 hour.; format: functional
Rattus norvegicus [24] = assay: In vivo activity was evaluated by measuring mean arterial pressure(MAP) after 5 hour.; format: functional, Artery
Rattus norvegicus [25] = assay: In vivo activity was evaluated by measuring heart rate(HR) after 1 hour.; format: functional
Rattus norvegicus [26] = assay: In vivo activity was evaluated by measuring mean arterial pressure(MAP) after 3 hour.; format: functional, Artery
Rattus norvegicus [27] = assay: In vivo activity was evaluated by measuring interval between bladder contractions (IC) after 1 hour.; format: functional
Rattus norvegicus [28] = assay: In vivo activity was evaluated by measuring mean arterial pressure (MAP) after 1 hour.; format: functional, Artery
Rattus norvegicus [29] = assay: In vivo activity was evaluated by measuring mean arterial pressure(MAP) after 1 hour.; format: functional, Artery
Rattus norvegicus [30] = assay: In vivo activity was evaluated by measuring interval between bladder contractions (IC) after 1 hours; format: functional

Compound	Delta HR (Rattus norvegicus [1]) [%]	Delta IC (Rattus norvegicus [2]) [%]	Delta IC (Rattus norvegicus [3]) [%]	Delta HR (Rattus norvegicus [4]) [%]	Delta MAP (Rattus norvegicus [5]) [%]	Delta MAP (Rattus norvegicus [6]) [%]	Delta HR (Rattus norvegicus [7]) [%]	Delta MAP (Rattus norvegicus [8]) [%]	Delta IC (Rattus norvegicus [9]) [%]	also measured
CC(O)(C(=O)Nc1ccc(S(=O)(=O)c2cccnc2)cc1)C(F)(F)F (stereo unspecified)	-2	64	125	3	-11	-16	19	-14	83	–
CN(c1ccccc1)S(=O)(=O)c1ccc(NC(=O)C(C)(O)C(F)(F)F)cc1 (stereo unspecified)	1	30	56	4	-4	-1	-1	-3	33	–
Cc1cc(C(=O)c2ccccc2)ccc1NC(=O)C(C)(O)C(F)(F)F (stereo unspecified)	1	–	71	-1	-4	-3	0	-4	50	Delta IC (Rattus norvegicus [10]): 26%
CC(O)(C(=O)Nc1ccc(S(=O)(=O)c2ccccc2)cc1)C(F)(F)F (stereo unspecified)	–	–	–	–	–	–	–	–	–	Delta MAP (Rattus norvegicus [11]): -25%; Delta HR (Rattus norvegicus [12]): 27%; Delta HR (Rattus norvegicus [13]): 32%; Delta IC (Rattus norvegicus [14]): 79%; Delta MAP (Rattus norvegicus [15]): -24%; Delta HR (Rattus norvegicus [16]): -22%; Delta MAP (Rattus norvegicus [17]): 23%; Delta IC (Rattus norvegicus [18]): 24%; Delta IC (Rattus norvegicus [19]): 97%
CC(O)(C(=O)Nc1ccc(C(=O)c2cccc(F)c2)cc1)C(F)(F)F (stereo unspecified)	6	–	61	4	1	4	9	2	56	Delta IC (Rattus norvegicus [10]): 25%
CC(O)(C(=O)Nc1ccc(S(=O)(=O)c2ccncc2)c(O)c1)C(F)(F)F (stereo unspecified)	6	25	95	2	-4	1	2	1	42	–
CC(O)(C(=O)Nc1ccc(C(=O)c2ccccc2)cc1)C(F)(F)F (stereo unspecified)	–	–	–	–	–	–	–	–	–	Delta IC (Rattus norvegicus [20]): 73%; Delta HR (Rattus norvegicus [21]): -3%; Delta HR (Rattus norvegicus [22]): -4%; Delta IC (Rattus norvegicus [23]): 128%; Delta MAP (Rattus norvegicus [24]): 2%; Delta HR (Rattus norvegicus [25]): 2%; Delta MAP (Rattus norvegicus [26]): 1%; Delta IC (Rattus norvegicus [27]): 35%; Delta MAP (Rattus norvegicus [28]): -1%
CC(O)(C(=O)Nc1ccc(S(=O)(=O)c2ccncc2)cc1)C(F)(F)F (stereo unspecified)	0	20	76	1	1	4	5	5	76	–
CC1(C)Oc2ccc(C#N)cc2[C@@H](N2CCCC2=O)[C@@H]1O [CROMAKALIM]	–	–	–	–	–	–	–	–	–	Delta IC (Rattus norvegicus [20]): 104%; Delta HR (Rattus norvegicus [21]): 13%; Delta IC (Rattus norvegicus [23]): 114%; Delta MAP (Rattus norvegicus [24]): -12%; Delta MAP (Rattus norvegicus [29]): -18%; Delta IC (Rattus norvegicus [30]): 54%; Delta HR (Rattus norvegicus [25]): 20%; Delta HR (Rattus norvegicus [16]): 9%; Delta MAP (Rattus norvegicus [26]): -14%
